From PubChem BioAssay (NCI)
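Results reflect a 48-hour exposure of cells in 96-well plates to compound at five concentrations. Definition used: TGI = concentration required for complete inhibition of growth.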

Experiments:
Experiment in all cases: DTP human tumour cell line panel, 48 h
786-0 renal = test system: 786-0 renal
CAKI-1 renal = test system: CAKI-1 renal
HOP-62 NSCLC = test system: HOP-62 NSCLC
HS 578T breast = test system: HS 578T breast
OVCAR-5 ovarian = test system: OVCAR-5 ovarian
RPMI-8226 leukemia = test system: RPMI-8226 leukemia
UO-31 renal = test system: UO-31 renal
HT29 colon = test system: HT29 colon
NCI-H460 lung = test system: NCI-H460 lung
OVCAR-4 ovarian = test system: OVCAR-4 ovarian

Row | SMILES | TGI (786-0 renal) | TGI (CAKI-1 renal) | TGI (HOP-62 NSCLC) | TGI (HS 578T breast) | TGI (OVCAR-5 ovarian) | TGI (RPMI-8226 leukemia) | TGI (UO-31 renal) | TGI (HT29 colon) | TGI (NCI-H460 lung) | TGI (OVCAR-4 ovarian)
1 | CCOC(=O)C1=C(C)NC(c2ccccc2)=C(C(=O)OCc2ccccc2)C1C#Cc1ccccc1 (stereo not drawn) | > 100 µM | 57.4 µM | > 100 µM | > 100 µM | > 100 µM | > 100 µM | > 100 µM |  |  | 
2 | Cc1ccc2c(=O)cc(-c3ccccc3)[nH]c2n1 | > 86 µM | > 72.9 µM | > 100 µM |  | > 100 µM | > 15.1 µM | > 81.8 µM | 0.194 µM | > 100 µM | > 100 µM
3 | OC[C@@H](O)[C@H](O)[C@H](O)[C@@H](O)C1SCCCS1 | > 100 µM | > 100 µM | > 100 µM |  | > 100 µM | > 100 µM | > 100 µM | > 100 µM | > 100 µM | > 100 µM
4 | Nc1nc(Cl)cc(OCC2(CO)CCCCC2)n1 | > 100 µM |  | > 100 µM | > 100 µM | > 100 µM | > 100 µM |  | > 100 µM | > 100 µM | > 100 µM
5 | CC(=O)O[C@H]1C(=O)[C@@]2(C)C(C(OC(=O)c3ccccc3)[C@]3(O)CC(OC(=O)C(O)C(NC(=O)c4cccc(Cl)c4)c4ccccc4)C(C)=C1C3(C)C)[C@]1(OC(C)=O)CO[C@@H]1C[C@@H]2O (stereo partly drawn) | > 10 µM | > 10 µM | > 10 µM |  | > 10 µM | > 10 µM |  | > 10 µM | > 10 µM | > 10 µM
6 | CCOC(=O)/C(C(N)=O)=C(/O)c1cnccn1 | > 100 µM | > 100 µM |  | > 100 µM | > 100 µM | > 100 µM | > 100 µM | > 100 µM | > 100 µM | > 100 µM
7 | CN(CCCNC(=O)c1[nH]nc2c1ccc1ccccc12)CCCNC(=O)c1[nH]nc2c1ccc1ccccc12 | 22.9 µM | 33.6 µM | 34.6 µM | 33.5 µM | 37.2 µM |  | 31.4 µM | 34.6 µM | 38 µM | 37.4 µM
8 | CC(NC(=O)C(NC(=O)C(NC(=O)C(F)(F)F)C(C)C)C(C)C)C(=O)Oc1c(Cl)c(Cl)c(Cl)c(Cl)c1Cl (stereo not drawn) |  | > 100 µM | > 100 µM | > 100 µM | > 100 µM | > 100 µM | > 100 µM | > 100 µM | > 100 µM | > 100 µM
9 | CN(C)CCNC(=O)c1cccc2c(NC(CCCN=C(N)N)C(=O)O)c3ccccc3nc12 (stereo not drawn) | > 100 µM |  | 90.8 µM | 33.2 µM | > 100 µM | > 100 µM | > 100 µM | 14.1 µM |  | 27.7 µM
10 | O=C(O)Cn1cnc2c(=O)[nH]c(Nc3ccccc3)nc21 | > 100 µM | > 100 µM | > 100 µM | > 100 µM | > 100 µM | > 100 µM |  | > 100 µM | > 100 µM | > 100 µM
11 | CNC(=O)/C(C#N)=C(\N)N1CCCC1 | > 100 µM | > 100 µM | > 100 µM | > 100 µM | > 100 µM | > 100 µM | > 100 µM | > 100 µM | > 100 µM | 
12 | Cc1nc2cc3[nH]c4ccccc4c(=O)c3cc2s1 | > 100 µM | > 100 µM | > 100 µM |  | > 100 µM | > 100 µM | > 100 µM | > 100 µM | > 100 µM | > 100 µM
